Measured values from US20250304623A1, “PEPTIDES FOR INTRACELLULAR DELIVERY” (UNIVERSIDADE DE SANTIAGO DE COMPOSTELA, priority 2022, published 2025).
*: point of attachment. NHNH2 = NN*

What was measured:
Type in all cases: cell-based
[1] = tested on: ARPE19 cells expressing EGFP; assay: Cas9-RNP delivery against EGFP (gene editing, plate reader), ARPE19
Protocol: (§1) To generate an EGFP expressing HeLa cell line, HeLa cells were transfected with EGFP pDNA (pEGFP-C1, Clontech) and stable transfectants were selected with 400 μg/mL of G-418 (Millipore). Green clones were selected by epifluorescence microscopy and tested for EGFP expression stability through several passages. […] All other EGFP-expressing cell lines were obtained in a similar way from parent non-EGFP-expressing cell lines.
(§2) Cells expressing EGFP were seeded in a 96 well plate the day before the experiment at a concentration of 50,000 cell/mL (100 μL/w) in DMEM+10% FBS+1% Gln-Abt. For robotic library screening, the delivery of Cas9-RNP against EGFP (RNP designed to knock-out the gene encoding for the enhanced green fluorescent protein (EGFP)) was performed. For RNP assembly, 9.2 μL of crRNA and 9.2 μL of tracrRNA were mixed in 211.6 μL of Nuclease-Free Duplex Buffer (IDT), incubated for 5 min at 95° C. and slowly cooled at rt (see I. Lostalé-Seijo, et al. Peptide/Cas9 nanostructures for ribonucleoprotein cell membrane transport and gene edition, Chem. Sci., 2017). Cas9 protein was dissolved in DMEM at a final concentration of 4 μM and equal volumes of the RNA complex and Cas9 were mixed and incubated for 5 min at rt. 75 μL of the corresponding amphiphile concentrations were added to 5 μL of RNP at 2 μM. The mixture was shaken for 30 min at room temperature before the addition to the cells. The cell medium was aspirated, and cells were washed twice with PBS. Cells were covered with 30 μL of DMEM and 20 μL of the RNP/amphiphile complexes were added to the cells (final peptide concentrations=2.5, 5 and 10 μM; final Cas9-RNP concentration=50 nM) and incubated for 4 h. After the incubation, the medium was replaced by 100 μL of fresh DMEM supplemented with 10% FBS. The total EGFP fluorescence was quantified after 72 h in a plate reader (FIG. 2, Table 1 (right) and Table 6). All experiments were done in triplicate. […]
(§3) Tables 26-31 show the mean (triplicates) percentage of gene editing, accounted by GFP fluorescence intensity decrease (% of reduction), measured after the transfection of Cas9-RNP by different amphiphiles at different concentrations in a variety of cell lines. Background values, accounted by untreated control cells, were subtracted for processing.

[2] = tested on: HepG2 cells expressing EGFP; assay: Cas9-RNP delivery against EGFP (gene editing, plate reader), HepG2
Protocol: as §1, §2, §3

[3] = tested on: A549 cells expressing EGFP; assay: Cas9-RNP delivery against EGFP (gene editing, plate reader), A549; conditions: A549 cells
Protocol: as §1
Cells expressing EGFP were seeded in a 96 well plate the day before the experiment at a concentration of 50,000 cell/mL (100 μL/w) in DMEM+10% FBS+1% Gln-Abt. For robotic library screening, the delivery of Cas9-RNP against EGFP (RNP designed to knock-out the gene encoding for the enhanced green fluorescent protein (EGFP)) was performed. For RNP assembly, 9.2 μL of crRNA and 9.2 μL of tracrRNA were mixed in 211.6 μL of Nuclease-Free Duplex Buffer (IDT), incubated for 5 min at 95° C. and slowly cooled at rt (see I. Lostalé-Seijo, et al. Peptide/Cas9 nanostructures for ribonucleoprotein cell membrane transport and gene edition, Chem. Sci., 2017). Cas9 protein was dissolved in DMEM at a final concentration of 4 μM and equal volumes of the RNA complex and Cas9 were mixed and incubated for 5 min at rt. 75 μL of the corresponding amphiphile concentrations were added to 5 μL of RNP at 2 μM. The mixture was shaken for 30 min at room temperature before the addition to the cells. The cell medium was aspirated, and cells were washed twice with PBS. Cells were covered with 30 μL of DMEM and 20 μL of the RNP/amphiphile complexes were added to the cells (final peptide concentrations=2.5, 5 and 10 μM; final Cas9-RNP concentration=50 nM) and incubated for 4 h. After the incubation, the medium was replaced by 100 μL of fresh DMEM supplemented with 10% FBS. The total EGFP fluorescence was quantified after 72 h in a plate reader (FIG. 2, Table 1 (right) and Table 6). All experiments were done in triplicate.
Tables 1-7: RLuc (pDNA) or EGFP (mRNA) expression levels were normalized to Lipofectamine reagents (value=1) and expressed as fold-times signal increase. In the case of siRNA, the siRNA treated cells fluorescence was compared with siMOCK control fluorescence, while Cas9-RNP mediated knockout was measured against the fluorescence of untreated cells. In both siRNA and Cas9-RNP, values are expressed as % fluorescence reduction. Amphiphile concentration was 5 μM in all cases. All experiments were performed in triplicate.
as §3

Row | Substance | percentage of gene editing, GFP fluorescence intensity decrease (% of reduction) ([1]; Dodecanal, 5 μM) | percentage of gene editing, GFP fluorescence intensity decrease (% of reduction) ([1]; Dodecanal, 10 μM) | percentage of gene editing, GFP fluorescence intensity decrease (% of reduction) ([1]; Oleyl, 10 μM) | percentage of gene editing, GFP fluorescence intensity decrease (% of reduction) ([1]; Oleyl, 15 μM) | percentage of gene editing, GFP fluorescence intensity decrease (% of reduction) ([1]; Palmitoleyl, 5 μM) | percentage of gene editing, GFP fluorescence intensity decrease (% of reduction) ([1]; Palmitoleyl, 15 μM) | percentage of gene editing, GFP fluorescence intensity decrease (% of reduction) ([2]; Dodecanal, 5 μM) | percentage of gene editing, GFP fluorescence intensity decrease (% of reduction) ([2]; Dodecanal, 10 μM) | percentage of gene editing, GFP fluorescence intensity decrease (% of reduction) ([2]; Dodecanal, 15 μM) | percentage of gene editing, GFP fluorescence intensity decrease (% of reduction) ([2]; Myristoleyl, 5 μM) | percentage of gene editing, GFP fluorescence intensity decrease (% of reduction) ([2]; Myristoleyl, 10 μM) | percentage of gene editing, GFP fluorescence intensity decrease (% of reduction) ([2]; Myristoleyl, 15 μM) | percentage of gene editing, GFP fluorescence intensity decrease (% of reduction) ([2]; Oleyl, 5 μM) | percentage of gene editing, GFP fluorescence intensity decrease (% of reduction) ([2]; Oleyl, 10 μM) | percentage of gene editing, GFP fluorescence intensity decrease (% of reduction) ([2]; Petroselinyl, 10 μM) | percentage of gene editing, GFP fluorescence intensity decrease (% of reduction) ([3]; Dodecanal, 10 μM) | percentage of gene editing, GFP fluorescence intensity decrease (% of reduction) ([3]; Dodecanal, 15 μM) | percentage of gene editing, GFP fluorescence intensity decrease (% of reduction) ([3]; Myristoleyl, 5 μM) | percentage of gene editing, GFP fluorescence intensity decrease (% of reduction) ([3]; Myristoleyl, 10 μM) | percentage of gene editing, GFP fluorescence intensity decrease (% of reduction) ([3]; Myristoleyl, 15 μM) | further results
1 | Ac-RK*LRK*K*L-NH2 (Ac-RK(NHNH2)LRK(NHNH2)K(NHNH2)L-NH2; not fully specified; printed as Ac-RK*LRK*K*L-NH2; also: K*2,K*5,K*6: native or modified lysine (ε-amide to a linker)) [Peptide 7.3] | 9% | 14% | 35% | 42% | 7% | 12% | −21% | −24% | −29% | −19% | −20% | −14% | −7% | −3% | −1% | −2% | 1% | 7% | 10% | 12% | percentage of gene editing, GFP fluorescence intensity decrease (% of reduction) ([1]; Oleyl, 5 μM): 22%; percentage of gene editing, GFP fluorescence intensity decrease (% of reduction) ([1]; Palmitoleyl, 10 μM): 9%; percentage of gene editing, GFP fluorescence intensity decrease (% of reduction) ([1]; Petroselinyl, 5 μM): 25%; percentage of gene editing, GFP fluorescence intensity decrease (% of reduction) ([1]; Petroselinyl, 10 μM): 13%; percentage of gene editing, GFP fluorescence intensity decrease (% of reduction) ([2]; Oleyl, 15 μM): −1%; percentage of gene editing, GFP fluorescence intensity decrease (% of reduction) ([2]; Palmitoleyl, 5 μM): −14%; percentage of gene editing, GFP fluorescence intensity decrease (% of reduction) ([2]; Palmitoleyl, 10 μM): −14%; percentage of gene editing, GFP fluorescence intensity decrease (% of reduction) ([2]; Palmitoleyl, 15 μM): −4%; percentage of gene editing, GFP fluorescence intensity decrease (% of reduction) ([3]; Oleyl, 5 μM): −9%; percentage of gene editing, GFP fluorescence intensity decrease (% of reduction) ([3]; Oleyl, 15 μM): −1%; percentage of gene editing, GFP fluorescence intensity decrease (% of reduction) ([3]; Palmitoleyl, 5 μM): 27%; percentage of gene editing, GFP fluorescence intensity decrease (% of reduction) ([3]; Palmitoleyl, 10 μM): 33%; percentage of gene editing, GFP fluorescence intensity decrease (% of reduction) ([3]; Palmitoleyl, 15 μM): 13%; percentage of gene editing, GFP fluorescence intensity decrease (% of reduction) ([3]; Petroselinyl, 5 μM): 23%; percentage of gene editing, GFP fluorescence intensity decrease (% of reduction) ([3]; Petroselinyl, 10 μM): 22%; percentage of gene editing, GFP fluorescence intensity decrease (% of reduction) ([3]; Petroselinyl, 15 μM): 7%
2 | Ac-RK*LRRK*L-NH2 (Ac-RK(NHNH2)LRRK(NHNH2)L-NH2; not fully specified; printed as Ac-RK*LRRK*L-NH2; also: K*2,K*6: native or modified lysine (ε-amide to a linker)) [Peptide 7.2] | 0% | 0% | – | – | – | – | −23% | −56% | −47% | −42% | −40% | −21% | – | – | – | −3% | −13% | 3% | 7% | 7% | percentage of gene editing, GFP fluorescence intensity decrease (% of reduction) ([1]; Myristoleyl, 5 μM): 3%; percentage of gene editing, GFP fluorescence intensity decrease (% of reduction) ([1]; Myristoleyl, 15 μM): −8%
3 | Ac-RK*LRRK*LRK*-NH2 (Ac-RK(NHNH2)LRRK(NHNH2)LRK(NHNH2)-NH2; not fully specified; printed as Ac-RK*LRRK*LRK*-NH2; also: K*2,K*6,K*9: native or modified lysine (ε-amide to a linker)) [Peptide 9.3] | 5% | – | 23% | 22% | 3% | 8% | – | −29% | −26% | – | −5% | – | −10% | 3% | −19% | 0% | 25% | 13% | 17% | 50% | percentage of gene editing, GFP fluorescence intensity decrease (% of reduction) ([1]; Dodecanal, 15 μM): −14%; percentage of gene editing, GFP fluorescence intensity decrease (% of reduction) ([1]; Myristoleyl, 15 μM): −25%; percentage of gene editing, GFP fluorescence intensity decrease (% of reduction) ([1]; Petroselinyl, 15 μM): −2%; percentage of gene editing, GFP fluorescence intensity decrease (% of reduction) ([2]; Petroselinyl, 5 μM): −24%; percentage of gene editing, GFP fluorescence intensity decrease (% of reduction) ([3]; Oleyl, 15 μM): 18%; percentage of gene editing, GFP fluorescence intensity decrease (% of reduction) ([3]; Palmitoleyl, 15 μM): 39%; percentage of gene editing, GFP fluorescence intensity decrease (% of reduction) ([3]; Petroselinyl, 10 μM): 13%; percentage of gene editing, GFP fluorescence intensity decrease (% of reduction) ([3]; Petroselinyl, 15 μM): 47%
